Values quoted from earlier work in US20150080385A1, “OPHTHALMIC PHARMACEUTICAL COMPOSITION CONTAINING A CARBONIC ANHYDRASE INHIBITOR AND METHOD FOR THE PREPARATION THEREOF” (PHARMATHEN S.A., priority 2012, published 2015).

- Solubility in alcohol and methanol (alcohol and methanol): slightly soluble
- Solubility in water (water): insoluble
SMILES: CCN[C@H]1CN(CCCOC)S(=O)(=O)c2sc(S(N)(=O)=O)cc21 [Brinzolamide, (R)-4-ethylamino-3,4-dihydro-2-(3-methoxy) propyl-2H-thieno[3,2-e]-1,2-thiazine-6-sulfonamide 1, 1 dioxide]
